In patent US5753715A, “2-disubstituted cyclohexenyl and cyclohexyl antimicrobial agents” (Ortho Pharmaceutical Corporation, priority 1995, dated 1998):

Target: T1, Kinase A and SpoOF (Bacillus subtilis, UniProt P16497)
T1 sequence (P16497 1-606): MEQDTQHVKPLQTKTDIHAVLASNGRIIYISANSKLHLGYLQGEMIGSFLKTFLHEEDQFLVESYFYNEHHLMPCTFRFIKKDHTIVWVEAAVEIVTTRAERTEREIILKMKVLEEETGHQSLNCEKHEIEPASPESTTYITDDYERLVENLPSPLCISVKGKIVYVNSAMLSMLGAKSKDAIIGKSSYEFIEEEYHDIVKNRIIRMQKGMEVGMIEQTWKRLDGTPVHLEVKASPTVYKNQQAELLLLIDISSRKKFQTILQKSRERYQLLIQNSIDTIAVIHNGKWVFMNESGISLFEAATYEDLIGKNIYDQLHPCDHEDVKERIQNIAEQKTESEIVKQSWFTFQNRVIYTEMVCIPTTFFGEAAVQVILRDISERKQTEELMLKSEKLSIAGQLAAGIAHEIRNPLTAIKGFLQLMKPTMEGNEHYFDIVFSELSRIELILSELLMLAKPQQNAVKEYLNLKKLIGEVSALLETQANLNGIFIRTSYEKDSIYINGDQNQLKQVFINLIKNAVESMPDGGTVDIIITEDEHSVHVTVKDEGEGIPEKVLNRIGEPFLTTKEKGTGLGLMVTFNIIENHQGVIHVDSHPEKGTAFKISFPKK
Experiment: Autophosphorylation of Kinase A and Transphosphorylation of SPoOF Assay
Type: biochemical
Details: inhibition of Kinase A autophosphorylation / SpoOF transphosphorylation, [32P]ATP, gel, phosphoimager

Row | SMILES | IC50 | IC min
1 | C1=CC(CCOc2ccc(CCNCCN3CCCC3)cc2)(Cc2ccccc2)CCC1 (stereo not shown) [Compound 1] | 210 mM | 62.5 mM
2 | NCc1ccc(OCCC2(Cc3cccc(Cl)c3)C=CCCC2)cc1 (stereo not shown) [Compound 5] | 18.5 mM | 15.6 mM
3 | N=C(N)NCc1ccc(OCCC2(Cc3cccc(Cl)c3)C=CCCC2)cc1 (stereo not shown) [Compound 6] | 35.8 mM | 
4 | NC(=O)c1ccc(OCCC2(Cc3cccc(Cl)c3)C=CCCC2)cc1 (stereo not shown) [Compound 7] | 330 mM | 
5 | CNCCCc1cnc(SCCC2(Cc3ccccc3)C=CCCC2)nc1 (stereo not shown) [Compound 8] | 92.3 mM | 
6 | COc1cc(CN)ccc1OCCC1(Cc2ccccc2)C=CCCC1 (stereo not shown) [Compound 9] | 446 mM | 250 mM
7 | CCNCCc1ccc(NCCC2(Cc3ccccc3)C=CCCC2)cc1 (stereo not shown) [Compound 10] | 257 mM | 125 mM
8 | NCCCCc1ccc(OCCC2(Cc3ccccc3)C=CCCC2)cc1 (stereo not shown) [Compound 11] | 353 mM | 125 mM
9 | O=C(O)CCc1ccc(OCCC2(c3ccc(F)cc3)C=CCCC2)cc1 (stereo not shown) [Compound 12] | 354 mM | 125 mM
10 | NCCc1ccc(OCCC2(Cc3ccccc3)CCCCC2)cc1 [Compound 13] | 39.5 mM | 7.8 mM
11 | CC(C)NCCc1ccc(OCCC2(CCCc3ccccc3)CCCCC2)cc1 [Compound 14] |  | 500 mM
12 | CNCCCc1ccc(OCCC2(CCO)C=CCCC2)cc1 (stereo not shown) [Compound 15] | 432 mM | 125 mM
13 | NCCc1ccc(OCCC2(Cc3ccc([N+](=O)[O-])cc3)CCCCC2)cc1 [Compound 16] | 43.5 mM | 15.6 mM
14 | NCCCc1ccc(OCCC2(Cc3ccccc3)C=CCCC2)cc1 (stereo not shown) [Compound 18] | 261 mM | 125 mM
15 | CNCCCc1ccc(OCCC2(Cc3ccccc3)C=CCCC2)cc1 (stereo not shown) [Compound 19] | 82.1 mM | 62.5 mM
16 | CN(C)CCCc1ccc(OCCC2(Cc3ccccc3)C=CCCC2)cc1 (stereo not shown) [Compound 20] | 122 mM | 
17 | C1=CC(CCOc2ccc(CCCNCCN3CCOCC3)cc2)(Cc2ccccc2)CCC1 (stereo not shown) [Compound 21] | 728 mM | 500 mM
18 | CC(C)C1(CCOc2ccc(CCN)cc2)C=CCCC1 (stereo not shown) [Compound 22] | 94.7 mM | 31.25 mM
19 | CC(C)C1(CCOc2ccc(CCNCCN3CCCC3)cc2)C=CCCC1 (stereo not shown) [Compound 23] | 295 mM | 125 mM
20 | OCCNCCCc1ccc(OCCC2(c3ccc(F)cc3)C=CCCC2)cc1 (stereo not shown) [Compound 25] | 200 mM | 125 mM
21 | CCCCNCCCc1ccc(OCCC2(c3ccc(F)cc3)C=CCCC2)cc1 (stereo not shown) [Compound 26] | 437 mM | 250 mM
22 | CCCNCCCc1ccc(OCCC2(c3ccc(F)cc3)C=CCCC2)cc1 (stereo not shown) [Compound 27] | 318 mM | 125 mM
23 | Fc1ccc(C2(CCOc3ccc(CCCNCc4ccccc4)cc3)C=CCCC2)cc1 (stereo not shown) [Compound 28] |  | > 1000 mM
24 | CNCCc1ccc(OCCCC2(Cc3ccccc3)C=CCCC2)cc1 (stereo not shown) [Compound 30] | 145 mM | 125 mM

Row | SMILES | IC50 | IC min
25 | CNCCCc1ccc(OCCC2(CCCc3ccccc3)C=CCCC2)cc1 (stereo not shown) [Compound 31] | 91 mM | 62.5 mM
26 | CCCCC1(CCOc2ccc(CCCNC)cc2)C=CCCC1 (stereo not shown) [Compound 32] | 164 mM | 125 mM
27 | NCCc1ccc(OCCC2(Cc3ccc(Cl)cc3)C=CCCC2)cc1 (stereo not shown) [Compound 33] | 339.5 mM | 125 mM
28 | CNCCCc1ccc(OCCC2(C(C)C)C=CCCC2)cc1 (stereo not shown) [Compound 35] | 468.4 mM | 125 mM
29 | CNCCc1ccccc1OCCC1(Cc2ccccc2)C=CCCC1 (stereo not shown) [Compound 36] |  | 500 mM
30 | CNCCc1cccc(OCCC2(Cc3ccccc3)C=CCCC2)c1 (stereo not shown) [Compound 37] | 107.7 mM | 62.5 mM
31 | N=C(N)NCCCc1ccc(OCCC2(Cc3ccccc3)C=CCCC2)cc1 (stereo not shown) [Compound 38] | 164.1 mM | 125 mM
32 | NCCc1ccc(OCCC2(Cc3cccc(Cl)c3)C=CCCC2)cc1 (stereo not shown) [Compound 39] | 61.5 mM | 31.25 mM
33 | Clc1cccc(CC2(CCOc3ccc(CCNCCN4CCCC4)cc3)C=CCCC2)c1 (stereo not shown) [Compound 40] | 46.8 mM | 31.25 mM
34 | CNCCCc1ccc(OCCC2(Cc3ccc(OC)cc3)C=CCCC2)cc1 (stereo not shown) [Compound 42] | 139 mM | 62.5 mM
35 | COc1ccc(CC2(CCOc3ccc(CCCN)cc3)C=CCCC2)cc1 (stereo not shown) [Compound 43] | 210 mM | 125 mM
36 | COc1ccc(CC2(CCOc3ccc(CCCNCCN4CCCC4)cc3)C=CCCC2)cc1 (stereo not shown) [Compound 44] | 133 mM | 62.5 mM
37 | N=C(N)NCCc1ccc(OCCC2(Cc3cccc(Cl)c3)C=CCCC2)cc1 (stereo not shown) [Compound 45] | 17.9 mM | 15.6 mM
38 | COc1ccc(CC2(CCOc3ccc(CCNC(=N)N)cc3)C=CCCC2)cc1 (stereo not shown) [Compound 47] | 21 mM | 15.6 mM
39 | CNCCCc1cnc(NCCC2(Cc3ccccc3)C=CCCC2)nc1 (stereo not shown) [Compound 48] |  | 500 mM
40 | COc1ccc(CC2(CCOc3ccc(C(N)=O)cc3)C=CCCC2)cc1 (stereo not shown) [Compound 51] |  | > 1000 mM
41 | NCCCc1ccc(OCCC2(Cc3ccc(Cl)cc3)C=CCCC2)cc1 (stereo not shown) [Compound 52] | 174 mM | 
42 | COc1ccc(CC2(CCOc3ccccc3CN)C=CCCC2)cc1 (stereo not shown) [Compound 54] | 122 mM | 
43 | NCc1ccccc1OCCC1(Cc2ccccc2Cl)C=CCCC1 (stereo not shown) [Compound 55] | 91.3 mM | 
44 | COc1ccc(CC2(CCOc3cccc(CNC(=N)N)c3)C=CCCC2)cc1 (stereo not shown) [Compound 56] | 66.6 mM | 
45 | COc1ccc(CC2(CCOc3ccc(CNC(=N)N)cc3)C=CCCC2)cc1 (stereo not shown) [Compound 57] | 46.6 mM | 
46 | NCc1cccc(OCCC2(Cc3cc(Cl)cc(Cl)c3)C=CCCC2)c1 (stereo not shown) [Compound 58] | 74.8 mM | 
47 | NCCNCCc1ccc(OCCC2(Cc3cccc(Cl)c3)C=CCCC2)cc1 (stereo not shown) [Compound 61] | 94.6 mM | 62.5 mM
